Assay results from patent publication US12630521B2, “Arylamides and methods of use thereof” (Genzyme Corporation, priority 2019, dated 2026).

Tests used:
[1] = target: T1, CFTR (ΔF508 homozygous CF-HBE cells) (Homo sapiens, UniProt P13569, DEL508-508); assay: TECC24 AUC fold over DMSO @10 uM: CFTR-mediated transepithelial chloride transport in primary CF-HBE cells; format: cell-based; conditions: 10 μM test agent, 48 hours, forskolin-stimulated IEQ AUC divided by vehicle AUC
T1 construct: Primary human bronchial epithelial cells from a ΔF508 homozygous CF donor; host or cells: primary CF-HBE cells (ΔF508/ΔF508 donor)
T1 sequence (P13569 with tags, fused parts or gaps DEL508-508): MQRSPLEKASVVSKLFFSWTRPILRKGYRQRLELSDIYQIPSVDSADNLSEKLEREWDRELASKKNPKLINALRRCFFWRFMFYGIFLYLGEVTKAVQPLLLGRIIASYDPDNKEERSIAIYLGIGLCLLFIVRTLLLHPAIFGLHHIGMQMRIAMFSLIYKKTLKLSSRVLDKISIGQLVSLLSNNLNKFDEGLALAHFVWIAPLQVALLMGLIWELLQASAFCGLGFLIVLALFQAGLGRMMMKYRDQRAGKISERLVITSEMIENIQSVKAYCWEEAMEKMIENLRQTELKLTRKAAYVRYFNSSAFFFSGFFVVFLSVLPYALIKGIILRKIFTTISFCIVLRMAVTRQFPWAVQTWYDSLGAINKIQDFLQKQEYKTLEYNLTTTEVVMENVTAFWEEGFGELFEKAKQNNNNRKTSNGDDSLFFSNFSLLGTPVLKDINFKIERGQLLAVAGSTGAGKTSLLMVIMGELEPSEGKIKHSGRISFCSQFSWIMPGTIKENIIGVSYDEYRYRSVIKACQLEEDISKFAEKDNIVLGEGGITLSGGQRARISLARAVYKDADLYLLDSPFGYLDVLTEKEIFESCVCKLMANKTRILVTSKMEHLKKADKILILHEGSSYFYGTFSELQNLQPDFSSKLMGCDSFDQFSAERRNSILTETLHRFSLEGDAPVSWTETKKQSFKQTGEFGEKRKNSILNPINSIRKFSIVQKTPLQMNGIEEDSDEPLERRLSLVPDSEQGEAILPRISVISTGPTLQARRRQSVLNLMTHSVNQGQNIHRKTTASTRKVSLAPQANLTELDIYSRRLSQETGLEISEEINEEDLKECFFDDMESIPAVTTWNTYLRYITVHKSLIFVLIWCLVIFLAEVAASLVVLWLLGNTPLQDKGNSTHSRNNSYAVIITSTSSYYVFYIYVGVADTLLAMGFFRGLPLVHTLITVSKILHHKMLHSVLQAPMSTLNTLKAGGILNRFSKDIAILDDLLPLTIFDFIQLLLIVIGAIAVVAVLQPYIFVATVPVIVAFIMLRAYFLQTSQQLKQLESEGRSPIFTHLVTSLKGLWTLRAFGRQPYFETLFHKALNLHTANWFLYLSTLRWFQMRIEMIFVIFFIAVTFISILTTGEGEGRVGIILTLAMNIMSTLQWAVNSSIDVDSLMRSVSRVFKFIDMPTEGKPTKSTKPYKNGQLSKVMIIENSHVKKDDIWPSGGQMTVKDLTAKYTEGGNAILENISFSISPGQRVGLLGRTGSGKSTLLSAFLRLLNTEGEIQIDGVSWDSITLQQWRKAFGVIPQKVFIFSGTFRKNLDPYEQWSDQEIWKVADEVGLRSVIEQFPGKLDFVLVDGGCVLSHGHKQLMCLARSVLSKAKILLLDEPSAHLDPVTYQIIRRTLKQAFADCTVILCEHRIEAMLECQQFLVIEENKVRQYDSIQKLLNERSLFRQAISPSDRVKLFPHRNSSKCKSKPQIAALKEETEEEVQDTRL
Protocol: Example 37: TECC24 AUC Fold Over DMSO @10 uM
The effects of a test agent on CFTR-mediated transepithelial chloride transport was measured using TECC24 recording analysis. Test agents were solubilized in DMSO. Solubilized test agents were mixed with incubation medium containing DMEM/F12, Ultroser G (2%; Crescent Chemical, catalog #67042), Hyclone Fetal Clone 11(2%; GE Healthcare, catalog #SH30066.02), bovine brain extract (0.25%; Lonza, catalog #CC-4098), insulin (2.5 μg/mL), IL-13 (10 ng/mL), hydrocortisone (20 nM), transferrin (2.5 μg/mL), triiodothyronine (500 nM), ethanolamine (250 nM), epinephrine (1.5 μM), phosphoethanolamine (250 nM), and retinoic acid (10 nM). Primary human bronchial epithelial cells from a ΔF508 homozygous CF donor (CF-HBE cells; from University of North Carolina Cystic Fibrosis Tissue Procurement Center), grown on Transwell HTS 24-well cell culture inserts (Costar, catalog #3378), were exposed to test agents or controls dissolved in incubation medium. The CF-HBE cells were cultured at 36.5° C. for 48 hours before TECC24 recordings were performed in the presence or absence of test agent, a positive control or vehicle (DMSO).
Following incubation, the transwell cell culture inserts containing the test agent or control-treated CF-HBE cells were loaded onto a TECC24 apparatus (TECC v7 or MTECC v2; EP Design) to record the transepithelial voltage (VT) and resistance (TEER) using 4 AgCl electrodes per well configured in current-clamp mode. The apical and basolateral bath solutions both contained (in mM) 140 NaCl, 5 KCl, 2 CaCl2, 1 MgCl2, 10 Hepes, and 10 glucose (adjusted to pH 7.4 with NaOH). To inhibit basal Na+ absorption, the ENaC inhibitor benzamil (10 μM) was added to the bath. Then, the adenylate cyclase activator, forskolin (10 μM), was added to the bath to activate CFTR. The forskolin-stimulated Cl— transport was halted by addition of CFTR inhibitor-172 (20 μM) to the bath at the end of the experiment to confirm specificity. VT and TEER recordings were digitally acquired at routine intervals using TECC or MTECC software (EP Design). VT and TEER were transformed into equivalent transepithelial Cl-current (IEQ), and the Area Under the Curve (AUC) of the IEQ time course between forskolin and CFTR inhibitor-172 addition is generated using Excel (Microsoft). Efficacy is expressed as the ratio of the test agent AUC divided by vehicle AUC. EC50s based on AUC are generated using the non-linear regression log(agonist) vs. response function in Prism software (GraphPad) with Hill Slope fixed=1.
If a test agent increased the AUC of the forskolin-stimulated IEQ relative to vehicle in CF-HBE cells, and this increase was inhibited by CFTR inhibitor-172, then the test agent was considered a CFTR corrector.

[2] = target: T2, human Cystic Fibrosis Transmembrane Conductance Regulator (CFTR) harboring the ΔF508 mutation (Homo sapiens, UniProt P13569, DEL508-508); assay: H441 cell Emax and EC50: HRP-tagged ΔF508-CFTR cell-surface luminescence assay; format: cell-based; conditions: H441 cells expressing HRP-tagged ΔF508-CFTR, 27° C. for two nights; for EC50: 15-point dose-response; for Emax: NCI-H441, % of maximum VX809 signal
T2 construct: expressed in transfected cells; host or cells: H441 carcinoma cell line (G418 selection)
T2 sequence (P13569 with tags, fused parts or gaps DEL508-508): as above
From the text: Example 36: H441 Cell Emax and EC50
Two cell lines were used, the H441 carcinoma line and the CFHBE41o− (41o−) human bronchial epithelial line. Both cell lines expressed human Cystic Fibrosis Transmembrane Conductance Regulator (CFTR) harboring the ΔF508 mutation and with an in-frame fusion in CFTR extracellular loop 4 of Horse Radish Peroxidase (HRP) under control of the CMV promoter. In the presence of the HRP tag, ΔF508-CFTR transported to the cell surface was detectable upon addition of an HRP substrate (Luminata Forte). Both cell types were cultivated at 37° C. with CO2.
For both cell types, the medium was changed every other day unless the culture was at low % confluence. Cells were used for the assays at ˜75% confluence.
DMSO/Compound Dilutions Plate for 15-Point Dose-Response Testing
To a polypropylene (PP) 384-well plate, 15 μls DMSO was added to all wells in columns 1-22 and 24 (low Control). 15 μls of 260 μM VX809 (Lumacaftor), Selleckchem S1565, was added to column 23 wells (high Control). 15 μls of 10 mM test compound or VX809 (control) were added to wells of row A. Serial dilutions of Row A compound were performed 2×15 μls in rows A through 0 (15-point).
A PP, 384-well plate containing the appropriate cell culture medium was prepared for each assay plate with 100 μls per well. For the doxycycline-induced 41o− cells, doxycycline for both the assay plate and the medium dilution plate was added at 0.0005 mg/ml to the medium.
Both cell lines were plated for the assay at 30 μls per 384-well at 3.4×10^e5 cells per ml (˜10K cells/well). H441 cells were plated on opaque, white, Corning plate 3704. 41o− cells were plated on collagen-coated opaque, white, Corning plate 356665. For 41o− cells, doxycycline was added to the medium.
Compound Addition/Assay Incubation
Using FX (Beckman) protocol, 10 μls diluted compound or medium was added per well to the Assay Plate as: 2 μls DMSO Dilution plate well is diluted in 100 μls of the Medium Dilution Plate well, mixed, and 10 μls is transferred to the Assay Plate.
The final assay dilution series is 24.5, 12.3, 6.1, 3.1, 1.5, 0.8, 0.4, 0.2, 0.1, 0.05, 0.02, 0.01, 0.006, 0.003, 0.001 and 0 μM. The 41o− assay plates were incubated at 37° C. w/CO2, the H441 assay plates were incubated at 27° C. w/CO2, each overnight for two nights.
Assay Result Determination
After being brought to room temperature, the assay plate liquid was removed. 30 uls of Luminata Forte (Millipore ELLUF0100) was added per well and incubated at room temperature for 10 min. The plates were then read on a Topcount, protocol LumiMatti (CPS, luminescence). The data was analyzed for % of maximum, maximum VX809 signal, and EC50 using Pearl and SPEED tools.

Structure (SMILES) | TECC24 AUC fold over DMSO [1] | EC50 [2] [nM] | Emax [2] [%]
Cc1c(Cl)sc2ccc(C(=O)N[C@H](C(=O)O)C3(C)CCC3)c(OCc3ccc(C(F)(F)F)cc3)c12 [Compound 34-2, (S)-2-(2-chloro-3-methyl-4-((4-(trifluoromethyl)benzyl)oxy)-benzo[b]thiophene-5-carboxamido)-2-(1-methylcyclobutyl)acetic acid] | A (“A” refers to AUC @10 μM > 6) | 1250 | 133
CC(C)(c1ccccc1)C(NC(=O)c1ccc2sccc2c1OCC1CCC(F)(F)CC1)C(=O)O (centres unmarked) [Compound 32-2, 2-(4-((4,4-difluorocyclohexyl)methoxy)-benzo[b]thiophene-5-carboxamido)-3-methyl-3-phenylbutanoic acid] | C (“C” refers to AUC @10 μM < 4) | 3200 | 112
CCC(C)(C)[C@H](NC(=O)c1ccc2sc(C(F)(F)F)cc2c1OCc1ccc(C(F)(F)F)cc1)C(=O)O [Compound 33-25, (2S)-3,3-dimethyl-2-(2-(trifluoromethyl)-4-((4-(trifluoromethyl)benzyl)oxy)-benzo[b]thiophene-5-carboxamido)pentanoic acid] | A (“A” refers to AUC @10 μM > 6) | 577 | 200
CC1(C(NC(=O)c2ccc3sccc3c2OCC2CCC(F)(F)CC2)C(=O)O)CCCCC1 (centres unmarked) [Compound 32-4, 2-(4-((4,4-difluorocyclohexyl)methoxy)-benzo[b]thiophene-5-carboxamido)-2-(1-methylcyclohexyl)acetic acid] | C (“C” refers to AUC @10 μM < 4) | 4370 | 78.7
CC(C)CCc1cc2c(OCc3ccc(C(F)(F)F)cc3)c(C(=O)N[C@H](C(=O)O)C(C)(C)C)ccc2s1 [Compound 33-2, (2S)-2-[[2-isopentyl-4-[[4-(trifluoromethyl)phenyl]methoxy]benzothiophene-5-carbonyl]amino]-3,3-dimethyl-butanoic acid] | B (“B” refers to AUC @10 μM between 4-6) | 441 | 216
COc1cc2c(OCc3ccc(C(F)(F)F)cc3)c(C(=O)N[C@H](C(=O)O)C(C)(C)C)ccc2s1 [Compound 33-7, (2S)-2-(2-methoxy-4-((4-(trifluoromethyl)benzyl)oxy)-benzo[b]thiophene-5-carboxamido)-3,3-dimethylbutanoic acid] | A (“A” refers to AUC @10 μM > 6) | 641 | 312
CCC(C)(C)[C@H](NC(=O)c1ccc2cc(C)sc2c1OCc1ccc(C(F)(F)F)cc1)C(=O)O [Compound 33-19, (2S)-3,3-dimethyl-2-(2-methyl-7-((4-(trifluoromethyl)benzyl)oxy)-benzo[b]thiophene-6-carboxamido)pentanoic acid] | A (“A” refers to AUC @10 μM > 6) | 427 | 255
CC(C)(C)[C@H](NC(=O)c1ccc2sccc2c1OCc1ccc(OC(F)F)cc1)C(=O)O [Compound 32-8, (2S)-2-(4-((4-(difluoromethoxy)benzyl)oxy)-benzo[b]thiophene-5-carboxamido)-3,3-dimethylbutanoic acid] |  | 4560 | 4.1

Next, values leading:

TECC24 AUC fold over DMSO [1] | EC50 [2] [nM] | Emax [2] [%] | Structure (SMILES)
A (“A” refers to AUC @10 μM > 6) | 618 | 151 | Cc1c(Cl)sc2ccc(C(=O)N[C@H](C(=O)O)C(C)(C)C)c(OCc3ccc(C(F)(F)F)cc3)c12 [Compound 35-1, (2S)-2-[[2-chloro-3-methyl-4-[[4-(trifluoromethyl)phenyl]methoxy]-benzothiophene-5-carbonyl]amino]-3,3-dimethyl-butanoic acid]
A (“A” refers to AUC @10 μM > 6) |  |  | CC(C)(C)[C@H](NC(=O)c1ccc2sc(C3(F)CC3)nc2c1OCc1ccc(C(F)(F)F)cc1)C(=O)O [Compound 35-8, (2S)-2-[[2-(1-fluorocyclopropyl)-4-[[4-(trifluoromethyl)phenyl]methoxy]-1,3-benzothiazole-5-carbonyl]amino]-3,3-dimethyl-butanoic acid]
A (“A” refers to AUC @10 μM > 6) |  |  | CC(C)(C)[C@H](NC(=O)c1ccc2sc(C3CCC3)nc2c1OCc1ccc(C(F)(F)F)cc1)C(=O)O [Compound 35-9, (2S)-2-[[2-cyclobutyl-4-[[4-(trifluoromethyl)phenyl]methoxy]-1,3-benzothiazole-5-carbonyl]amino]-3,3-dimethyl-butanoic acid]
A (“A” refers to AUC @10 μM > 6) |  |  | CC(C)(C)[C@H](NC(=O)c1ccc2sc(C3CC3)nc2c1OCc1ccc(C(F)(F)F)cc1)C(=O)O [Compound 35-5, (2S)-2-[[2-cyclopropyl-4-[[4-(trifluoromethyl)phenyl]methoxy]-1,3-benzothiazole-5-carbonyl]amino]-3,3-dimethyl-butanoic acid]
A (“A” refers to AUC @10 μM > 6) |  |  | CCC(C)(C)[C@H](NC(=O)c1ccc2sc(C3CC3)nc2c1OCc1ccc(C(F)(F)F)cc1)C(=O)O [Compound 35-6, (2S)-2-[[2-cyclopropyl-4-[[4-(trifluoromethyl)phenyl]methoxy]-1,3-benzothiazole-5-carbonyl]amino]-3,3-dimethyl-pentanoic acid]
A (“A” refers to AUC @10 μM > 6) |  |  | CC(C)(C)[C@H](NC(=O)c1ccc2sc(C3CCCC3)nc2c1OCc1ccc(C(F)(F)F)cc1)C(=O)O [Compound 35-7, (2S)-2-[[2-cyclopentyl-4-[[4-(trifluoromethyl)phenyl]methoxy]-1,3-benzothiazole-5-carbonyl]amino]-3,3-dimethyl-butanoic acid]
A (“A” refers to AUC @10 μM > 6) |  |  | CC(C)(C)[C@H](NC(=O)c1ccc2sc(C(F)F)nc2c1OCc1ccc(C(F)(F)F)cc1)C(=O)O [Compound 35-4, (2S)-2-[[2-(difluoromethyl)-4-[[4-(trifluoromethyl)phenyl]methoxy]-1,3-benzothiazole-5-carbonyl]amino]-3,3-dimethyl-butanoic acid]
